Measurements as given in patent US8691855B2, “Compounds, isomer thereof, or pharmaceutically acceptable salts thereof as vanilloid receptor antagonist and pharmaceutical compositions containing the same” (Amorepacific Corporation, priority 2008, dated 2014).

Key:
vanilloid receptor = biological target: T1, vanilloid receptor (Rattus norvegicus, UniProt O35433); experiment: 45Ca influx test (antagonist calcium uptake test) in rat DRG neurons stimulated with capsaicin; type: cell-based; details: neonatal SD rat DRG neurons; capsaicin 0.5 μM; 45Ca
T1 construct: DRG nerve cells from the primary culture of 2 days were equilibrated; endogenous in cells; host or cells: primary culture of dorsal root ganglion neurons from neonatal SD rats
Method in brief: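 Neonatal SD rat DRG neurons, cultured 2 days with NGF 200 ng/ml, exposed to test compound plus 0.5 μM capsaicin and 45Ca (10 μCi/ml) in HEPES-buffered Ca/Mg-free HBSS, pH 7.4, 10 min at room temperature. Influx counted by scintillation; activity as percent inhibition of the 0.5 μM capsaicin maximal response.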

Male ICR mice = experiment: Analgesic activity test: mouse writhing test by inducing with phenyl-p-quinone; type: in vivo; details: po, p.o., read-out: Analgesic effect (% Inhibition)
Procedure: 2. Analgesic Activity Test: Mouse Writhing Test by Inducing with Phenyl-p-quinone Male ICR mice (mean body weight 25 g) were maintained in a controlled lighting environment (12 h on/12 h off) for experiment. Animals received an intraperitoneal injection of 0.3 ml of the chemical irritant phenyl-p-quinone (dissolved in saline containing 5% ethanol to be a close of 4.5 mg/kg) and 6 mins later, the number of abdominal constrictions was counted in the subsequent 6 mins period. Animals (10 animals/group) received 0.2 ml of test compounds solution in vehicle of ethanol/Tween 80/saline (Oct. 10, 1980) intraperitoneally 30 min before the injection of phenyl-p-quinone. In the case of oral administration, 0.2 ml of test compounds solution in vehicle of ethanol/Tween 80/saline (5/5/90) were administered 54 min prior to the 0.2 ml of 0.02% phenyl-p-quinone injection. A reduction in the number of writhes responding to the test drug compound relative to the number responding in saline control group was considered to be indicative of an analgesic effect. Analgesic effect was calculated by % inhibition equation (% inhibition=(C-T)/C×100), wherein C and T represent the number of writhes in control and compound-treated group, respectively.

T1 sequence (O35433 whole entry): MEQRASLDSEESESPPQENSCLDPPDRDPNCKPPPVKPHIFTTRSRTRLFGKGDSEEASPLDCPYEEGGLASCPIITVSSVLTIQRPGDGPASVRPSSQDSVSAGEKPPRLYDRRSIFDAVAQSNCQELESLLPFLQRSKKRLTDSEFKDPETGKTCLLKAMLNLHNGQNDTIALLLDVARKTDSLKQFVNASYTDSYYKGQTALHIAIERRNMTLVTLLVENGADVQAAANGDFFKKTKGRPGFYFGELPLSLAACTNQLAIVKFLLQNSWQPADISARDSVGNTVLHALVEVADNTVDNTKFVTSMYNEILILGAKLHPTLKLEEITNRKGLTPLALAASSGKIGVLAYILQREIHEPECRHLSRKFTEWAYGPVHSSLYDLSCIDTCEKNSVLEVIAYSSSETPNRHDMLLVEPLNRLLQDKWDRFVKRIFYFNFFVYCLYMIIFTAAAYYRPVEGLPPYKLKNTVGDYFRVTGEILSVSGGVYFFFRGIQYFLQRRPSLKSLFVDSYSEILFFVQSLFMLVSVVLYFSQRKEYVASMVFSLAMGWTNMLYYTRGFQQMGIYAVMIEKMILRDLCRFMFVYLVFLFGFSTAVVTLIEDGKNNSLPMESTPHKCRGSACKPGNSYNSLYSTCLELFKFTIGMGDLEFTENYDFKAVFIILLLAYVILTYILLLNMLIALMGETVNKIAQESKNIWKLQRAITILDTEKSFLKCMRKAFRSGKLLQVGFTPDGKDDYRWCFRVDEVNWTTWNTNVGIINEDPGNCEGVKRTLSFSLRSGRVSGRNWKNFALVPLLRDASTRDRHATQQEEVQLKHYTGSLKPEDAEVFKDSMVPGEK

Compound C[C@@H](NC(=O)c1coc(Oc2cccc(C(C)(C)C)c2)n1)c1cc(F)c(NS(C)(=O)=O)c(F)c1 [Example 1, 2-(3-tert-Butyl-phenoxy)-oxazole-4-carboxylic acid [1-(3,5-difluoro-4-methanesulfonylamino-phenyl)-ethyl]-amide] has an IC50 (vanilloid receptor) of 150 nM and an inhibition in vivo at 3 mg/kg (Male ICR mice) of 21%.
Work on C[C@@H](NC(=O)c1coc(Oc2cccc(C(F)(F)F)c2)n1)c1cc(F)c(NS(C)(=O)=O)c(F)c1 [Example 2, 2-(3-Trifluoromethyl-phenoxy)-oxazole-4-carboxylic acid [1-(3,5-difluoro-4-methanesulfonylamino-phenyl)-ethyl]-amide] yielded an IC50 (vanilloid receptor) of 410 nM and an inhibition in vivo at 3 mg/kg (Male ICR mice) of 32%.
For CC(C)c1cccc(Oc2nc(C(=O)N[C@H](C)c3cc(F)c(NS(C)(=O)=O)c(F)c3)co2)c1 [Example 4, 2-(3-Isopropyl-phenoxy)-oxazole-4-carboxylic acid [1-(3,5-difluoro-4-methanesulfonylamino-phenyl)-ethyl]-amide], the IC50 (vanilloid receptor) was 80 nM and the inhibition in vivo at 3 mg/kg (Male ICR mice) was 28%.
CC1CCc2c(Oc3nc(C(=O)N[C@H](C)c4cc(F)c(NS(C)(=O)=O)c(F)c4)co3)cccc21 (some centres unmarked) [Example 30, 2-(1-Methyl-indan-4-yloxy)-oxazole-4-carboxylic acid [1-(3,5-difluoro-4-methanesulfonylamino-phenyl)-ethyl]-amide] gave an IC50 (vanilloid receptor) of 50 nM and an inhibition in vivo at 3 mg/kg (Male ICR mice) of 16%.
C[C@@H](NC(=O)c1coc(Oc2cccc(C3CC3)c2)n1)c1cc(F)c(NS(C)(=O)=O)c(F)c1 [Example 32, 2-(3-Cyclopropyl-phenoxy)-oxazole-4-carboxylic acid [1-(3,5-difluoro-4-methanesulfonylamino-phenyl)-ethyl]-amide] gave an IC50 (vanilloid receptor) of 280 nM and an inhibition in vivo at 3 mg/kg (Male ICR mice) of 32%.
CC(c1cccc(Oc2nc(C(=O)N[C@H](C)c3cc(F)c(NS(C)(=O)=O)c(F)c3)co2)c1)C(F)(F)F (some centres unmarked) [Example 35, 2-[3-(2,2,2-Trifluoro-1-methyl-ethyl)-phenoxy]-oxazole-4-carboxylic acid [1-(3,5-difluoro-4-methanesulfonylamino-phenyl)-ethyl]-amide] was tested, and the IC50 (vanilloid receptor) was 1800 nM and the inhibition in vivo at 0.3 mg/kg (Male ICR mice) was 29%.
CCCc1c(Oc2nc(C(=O)N[C@H](C)c3cc(F)c(NS(C)(=O)=O)c(F)c3)co2)cccc1C(F)(F)F [Example 42, 2-(2-Propyl-3-trifluoromethyl-phenoxy)-oxazole-4-carboxylic acid [1-(3,5-difluoro-4-methanesulfonylamino-phenyl)-ethyl]-amide] was tested, and the IC50 (vanilloid receptor) was 130 nM and the inhibition in vivo at 0.3 mg/kg (Male ICR mice) was 30%.
Work on C[C@@H](NC(=O)c1coc(Oc2cccc(C(F)(F)F)c2C2CC2)n1)c1cc(F)c(NS(C)(=O)=O)c(F)c1 [Example 46, 2-(2-Cyclopropyl-3-trifluoromethyl-phenoxy)-oxazole-4-carboxylic acid [1-(3,5-difluoro-4-methanesulfonylamino-phenyl)-ethyl]-amide] yielded an IC50 (vanilloid receptor) of 430 nM and an inhibition in vivo at 3 mg/kg (Male ICR mice) of 53%.
C[C@@H](NC(=O)c1coc(-c2cccc(C(F)(F)F)c2)n1)c1cc(F)c(NS(C)(=O)=O)c(F)c1 [Example 67, 2-(3-Trifluoromethyl-phenyl)-oxazole-4-carboxylic acid [1-(3,5-difluoro-4-methanesulfonylamino-phenyl)-ethyl]-amide] gave an IC50 (vanilloid receptor) of 360 nM and an inhibition in vivo at 3 mg/kg (Male ICR mice) of 43%.
Compound CC(C)c1cccc(-c2nc(C(=O)N[C@H](C)c3cc(F)c(NS(C)(=O)=O)c(F)c3)co2)c1 [Example 69, 2-(3-Isopropyl-phenyl)-oxazole-4-carboxylic acid [1-(3,5-difluoro-4-methanesulfonylamino-phenyl)-ethyl]-amide] has an IC50 (vanilloid receptor) of 160 nM and an inhibition in vivo at 0.3 mg/kg (Male ICR mice) of 35%.
With CC(C)c1cccc(-c2nc(C(=O)N[C@H](C)c3cc(F)c(NS(C)(=O)=O)c(F)c3)cs2)c1 [Example 80, 2-(3-Isopropyl-phenyl)-thiazole-4-carboxylic acid [1-(3,5-difluoro-4-methanesulfonylamino-phenyl)-ethyl]-amide] the IC50 (vanilloid receptor) was 30 nM and the inhibition in vivo at 3 mg/kg (Male ICR mice) was 22%.
Compound C[C@@H](NC(=O)c1coc(-c2cc(C(F)(F)F)cc(C(F)(F)F)c2)n1)c1cc(F)c(NS(C)(=O)=O)c(F)c1 [Example 87, 2-(3,5-Bis-trifluoromethyl-phenyl)-oxazole-4-carboxylic acid [1-(3,5-difluoro-4-methanesulfonylamino-phenyl)-ethyl]-amide] has an IC50 (vanilloid receptor) of 140 nM and an inhibition in vivo at 3 mg/kg (Male ICR mice) of 59%.
C[C@@H](NC(=O)c1coc(-c2ccc(Cl)c(C(F)(F)F)c2)n1)c1cc(F)c(NS(C)(=O)=O)c(F)c1 [Example 91, 2-(4-Chloro-3-trifluoromethyl-phenyl)-oxazole-4-carboxylic acid [1-(3,5-difluoro-4-methanesulfonylamino-phenyl)-ethyl]-amide] gave an IC50 (vanilloid receptor) of 210 nM and an inhibition in vivo at 3 mg/kg (Male ICR mice) of 25%.
With C[C@@H](NC(=O)c1csc(-c2cc(C(F)(F)F)cc(C(F)(F)F)c2)n1)c1cc(F)c(NS(C)(=O)=O)c(F)c1 [Example 93, 2-(3,5-Bis-trifluoromethyl-phenyl)-thiazole-4-carboxylic acid [1-(3,5-difluoro-4-methanesulfonylamino-phenyl)-ethyl]-amide] the IC50 (vanilloid receptor) was 910 nM and the inhibition in vivo at 3 mg/kg (Male ICR mice) was 41%.
C[C@@H](NC(=O)c1csc(-c2cccc(C(F)(F)F)c2)n1)c1cc(F)c(NS(C)(=O)=O)c(F)c1 [Example 94, 2-(3-Trifluoromethyl-phenyl)-thiazole-4-carboxylic acid [1-(3,5-difluoro-4-methanesulfonylamino-phenyl)-ethyl]-amide] was tested, and the IC50 (vanilloid receptor) was 360 nM and the inhibition in vivo at 3 mg/kg (Male ICR mice) was 46%.
C[C@@H](NC(=O)c1coc(-c2cccc(C3CC3)c2)n1)c1cc(F)c(NS(C)(=O)=O)c(F)c1 [Example 100, 2-(3-Cyclopropyl-phenyl)-oxazole-4-carboxylic acid [1-(3,5-difluoro-4-methanesulfonylamino-phenyl)-ethyl]-amide] gave an IC50 (vanilloid receptor) of 48 nM and an inhibition in vivo at 3 mg/kg (Male ICR mice) of 35%.
C[C@@H](NC(=O)c1csc(-c2cccc(C3CC3)c2)n1)c1cc(F)c(NS(C)(=O)=O)c(F)c1 [Example 101, 2-(3-Cyclopropyl-phenyl)-thiazole-4-carboxylic acid [1-(3,5-difluoro-4-methanesulfonylamino-phenyl)-ethyl]-amide] showed an IC50 (vanilloid receptor) of 73 nM and an inhibition in vivo at 3 mg/kg (Male ICR mice) of 33%.
Work on C[C@@H](NC(=O)c1ccc(-c2cccc(C3CC3)c2)o1)c1cc(F)c(NS(C)(=O)=O)c(F)c1 [Example 102, 5-(3-Cyclopropyl-phenyl)-furan-2-carboxylic acid [1-(3,5-difluoro-4-methanesulfonylamino-phenyl)-ethyl]-amide] yielded an IC50 (vanilloid receptor) of 100 nM and an inhibition in vivo at 3 mg/kg (Male ICR mice) of 58%.
With CS(=O)(=O)Nc1ccc(CNC(=O)c2ccc(-c3ccccc3C(F)(F)F)o2)cc1F [Example 117, 5-(2-Trifluoromethyl-phenyl)-furan-2-carboxylic acid 3-fluoro-4-methanesulfonylamino-benzylamide] the IC50 (vanilloid receptor) was 680 nM and the inhibition in vivo at 3 mg/kg (Male ICR mice) was 39%.
Work on CS(=O)(=O)Nc1ccc(CNC(=O)c2ccc(-c3cccc(C(F)(F)F)c3)o2)cc1F [Example 118, 5-(3-Trifluoromethyl-phenyl)-furan-2-carboxylic acid 3-fluoro-4-methanesulfonylamino-benzylamide] yielded an IC50 (vanilloid receptor) of 370 nM and an inhibition in vivo at 3 mg/kg (Male ICR mice) of 42%.
C[C@@H](NC(=O)c1ccc(-c2ccccc2C(F)(F)F)o1)c1cc(F)c(NS(C)(=O)=O)c(F)c1 [Example 119, 5-(2-Trifluoromethyl-phenyl)-furan-2-carboxylic acid [1-(3,5-difluoro-4-methanesulfonylamino-phenyl)-ethyl]-amide] showed an IC50 (vanilloid receptor) of 130 nM and an inhibition in vivo at 3 mg/kg (Male ICR mice) of 38%.
With C[C@@H](NC(=O)c1ccc(-c2cccc(C(F)(F)F)c2)o1)c1cc(F)c(NS(C)(=O)=O)c(F)c1 [Example 120, (R)-5-(3-Trifluoromethyl-phenyl)-furan-2-carboxylic acid [1-(3,5-difluoro-4-methanesulfonylamino-phenyl)-ethyl]-amide] the IC50 (vanilloid receptor) was 64 nM and the inhibition in vivo at 3 mg/kg (Male ICR mice) was 60%.
In the case of C[C@@H](NC(=O)c1ccc(-c2cc(C(F)(F)F)cc(C(F)(F)F)c2)o1)c1cc(F)c(NS(C)(=O)=O)c(F)c1 [Example 123, 5-(3,5-Bis-trifluoromethyl-phenyl)-furan-2-carboxylic acid [1-(3,5-difluoro-4-methanesulfonylamino-phenyl)-ethyl]-amide], the IC50 (vanilloid receptor) is reported as 45 nM and the inhibition in vivo at 0.3 mg/kg (Male ICR mice) is reported as 21%.
C[C@@H](NC(=O)c1cnc(-c2cc(C(F)(F)F)cc(C(F)(F)F)c2)s1)c1cc(F)c(NS(C)(=O)=O)c(F)c1 [Example 126, 2-(3,5-Bis-trifluoromethyl-phenyl)-thiazole-5-carboxylic acid [1-(3,5-difluoro-4-methanesulfonylamino-phenyl)-ethyl]-amide] was tested, and the IC50 (vanilloid receptor) was 490 nM.
